Several values for one entry are separate records, joined by “and”; a condition that tells them apart may be missing. Equal values may be shown once.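 The compound was tested at five concentrations on cells cultured in 96-well plates, with a 48-hour exposure period. GI50: concentration for 50% inhibition of growth. The concentration for full growth arrest is given as TGI.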
Key:
Assay in all cases: NCI-60 cell line screen, 48 h
KM12 colon = test system: KM12 colon
SF-295 CNS = test system: SF-295 CNS
A549 NSCLC = test system: A549 NSCLC
SN12C renal = test system: SN12C renal
NCI-H522 lung = test system: NCI-H522 lung
SW-620 colon = test system: SW-620 colon
MALME-3M melanoma = test system: MALME-3M melanoma
ACHN renal = test system: ACHN renal
SK-MEL-28 melanoma = test system: SK-MEL-28 melanoma
TK-10 renal = test system: TK-10 renal

## CC(=O)On1c(-c2ccccc2-c2nc3ccccc3n2OC(C)=O)nc2ccccc21
KM12 colon
  TGI: > 100 µM
SF-295 CNS
  TGI: > 100 µM
A549 NSCLC
  TGI: > 100 µM
SN12C renal
  TGI: > 100 µM
NCI-H522 lung
  TGI: 51.5 µM
SW-620 colon
  TGI: > 100 µM
MALME-3M melanoma
  TGI: > 100 µM
ACHN renal
  TGI: > 100 µM
SK-MEL-28 melanoma
  TGI: > 100 µM
TK-10 renal
  TGI: > 100 µM

## COc1ccc2c(c1)CC[C@H](O)/C2=C/c1cc(OC)c(OC)c(OC)c1
KM12 colon
  GI50: 0.093 µM
  TGI: > 100 µM
A549 NSCLC
  GI50: 0.245 µM
  TGI: > 100 µM
SN12C renal
  GI50: 0.998 µM
  TGI: > 100 µM
NCI-H522 lung
  GI50: 0.0824 µM
  TGI: 6.16 µM
SW-620 colon
  GI50: 0.0739 µM
  TGI: > 100 µM
MALME-3M melanoma
  GI50: 0.771 µM
  TGI: > 100 µM
ACHN renal
  GI50: 0.227 µM
  TGI: > 100 µM
SK-MEL-28 melanoma
  GI50: 3.9 µM
  TGI: > 100 µM
TK-10 renal
  GI50: 34.4 µM
  TGI: > 100 µM

## COc1nc(N)nc2c1ncn2C1OC(CO)C(O)C1O (stereo not given)
KM12 colon
  GI50: > 5000 µM
  TGI: > 5000 µM
SF-295 CNS
  GI50: > 5000 µM
  TGI: > 5000 µM
A549 NSCLC
  GI50: 701 µM
  TGI: > 5000 µM
SN12C renal
  GI50: 3280 µM
  TGI: > 5000 µM
NCI-H522 lung
  GI50: > 5000 µM
  TGI: > 5000 µM
SW-620 colon
  GI50: > 5000 µM
  TGI: > 5000 µM
MALME-3M melanoma
  GI50: 1150 µM
  TGI: > 5000 µM
ACHN renal
  GI50: 723 µM
  TGI: > 5000 µM
SK-MEL-28 melanoma
  GI50: 2280 µM
  TGI: > 5000 µM
TK-10 renal
  GI50: > 5000 µM
  TGI: > 5000 µM

## O=C1OC(O)C(Oc2c(Cl)cccc2Cl)=C1Cl (stereo not given)
KM12 colon
  TGI: 54.1 µM
SF-295 CNS
  TGI: 33.9 µM
A549 NSCLC
  TGI: 34.7 µM
SN12C renal
  TGI: 35 µM
NCI-H522 lung
  TGI: 27.3 µM
SW-620 colon
  TGI: 28.3 µM
MALME-3M melanoma
  TGI: 75.4 µM
ACHN renal
  TGI: 42.3 µM
SK-MEL-28 melanoma
  TGI: 45.7 µM
TK-10 renal
  TGI: 69.1 µM

## CN/N=C(\C)C(CN(C)C)C(c1ccccc1)c1c(O)c2ccccc2oc1=O (stereo not given)
KM12 colon
  TGI: > 100 µM
SF-295 CNS
  TGI: > 100 µM
A549 NSCLC
  TGI: > 100 µM
SN12C renal
  TGI: > 100 µM
NCI-H522 lung
  TGI: > 100 µM
SW-620 colon
  TGI: > 100 µM
MALME-3M melanoma
  TGI: > 100 µM
ACHN renal
  TGI: > 100 µM
SK-MEL-28 melanoma
  TGI: > 100 µM
TK-10 renal
  TGI: > 100 µM

## O=C1/C(=C\c2ccccn2)c2ccccc2N1c1c(Cl)cccc1Cl
KM12 colon
  GI50: 1.69 µM
  TGI: 3.22 µM
SF-295 CNS
  GI50: 1.96 µM
  TGI: 5.72 µM
A549 NSCLC
  GI50: 2.29 µM
  TGI: 14.6 µM
SN12C renal
  GI50: 2.65 µM
  TGI: 12.5 µM
NCI-H522 lung
  GI50: 1.98 µM
  TGI: 4.81 µM
SW-620 colon
  GI50: 1.89 µM
  TGI: 3.69 µM
MALME-3M melanoma
  GI50: 1.74 µM
  TGI: 4.89 µM
ACHN renal
  GI50: 1.82 µM
  TGI: 3.91 µM
SK-MEL-28 melanoma
  GI50: 1.84 µM
  TGI: 4.03 µM
TK-10 renal
  GI50: 3.39 µM
  TGI: 12.7 µM

## COC(=O)C1[C@H](c2cc(OC)c(OC)c(OC)c2)OC(=O)C1(C(=O)OC)C(=O)c1ccc2c(c1)OCO2 (stereo not given in full)
KM12 colon
  TGI: > 100 µM
SF-295 CNS
  TGI: > 100 µM
A549 NSCLC
  TGI: > 100 µM
SN12C renal
  TGI: > 100 µM
NCI-H522 lung
  TGI: > 100 µM
SW-620 colon
  TGI: > 100 µM
MALME-3M melanoma
  TGI: > 100 µM
ACHN renal
  TGI: > 100 µM
SK-MEL-28 melanoma
  TGI: > 100 µM
TK-10 renal
  TGI: > 100 µM

## N#CCN/C=C\C(=O)c1ccc(Cl)cc1
KM12 colon
  GI50: 36.5 µM
  TGI: > 100 µM
SF-295 CNS
  GI50: 28 µM
  TGI: > 100 µM
A549 NSCLC
  GI50: > 100 µM
  TGI: > 100 µM
SN12C renal
  GI50: 39.3 µM
  TGI: > 100 µM
NCI-H522 lung
  GI50: > 100 µM
  TGI: > 100 µM
SW-620 colon
  GI50: 37.8 µM
  TGI: > 100 µM
MALME-3M melanoma
  GI50: 17.9 µM
  TGI: 53.6 µM
SK-MEL-28 melanoma
  GI50: 40.1 µM
  TGI: > 100 µM
TK-10 renal
  GI50: 31.1 µM
  TGI: > 100 µM

## COc1ccc(/C=N\Nc2ccc([N+](=O)[O-])cn2)cc1OC
SF-295 CNS
  GI50: > 100 µM
  TGI: > 100 µM
SN12C renal
  GI50: > 100 µM
  TGI: > 100 µM
NCI-H522 lung
  GI50: > 100 µM
  TGI: > 100 µM
SW-620 colon
  GI50: > 100 µM
  TGI: > 100 µM
MALME-3M melanoma
  GI50: > 100 µM
  TGI: > 100 µM
SK-MEL-28 melanoma
  GI50: > 100 µM
  TGI: > 100 µM
TK-10 renal
  GI50: 3.18 µM
  TGI: 7.73 µM

## COc1cc(-c2nc(-c3nc4ccccc4[nH]3)cc3c2[nH]c2ccccc23)cc(OC)c1OC
KM12 colon
  GI50: 3.67 µM
  TGI: > 100 µM
A549 NSCLC
  GI50: 3.2 µM
  TGI: > 100 µM
SN12C renal
  GI50: 6.27 µM
  TGI: > 100 µM
NCI-H522 lung
  GI50: 3.51 µM
  TGI: > 100 µM
SW-620 colon
  GI50: 7.14 µM
  TGI: > 100 µM
MALME-3M melanoma
  GI50: 4.31 µM
  TGI: > 100 µM
ACHN renal
  GI50: 4.86 µM
  TGI: > 100 µM
SK-MEL-28 melanoma
  GI50: 6.89 µM
  TGI: > 100 µM
TK-10 renal
  GI50: 4.71 µM
  TGI: > 100 µM

## CO[C@H](C(=O)[C@@H](O)[C@@H](C)O)[C@@H]1Cc2cc3cc(OC4CC(OC5CC(O)C(O)C(C)O5)C(O)C(C)O4)c(C)c(O)c3c(O)c2C(=O)[C@H]1OC1CC(OC2CC(OC3CC(C)(O)C(O)C(C)O3)C(O)C(C)O2)C(O)C(C)O1 (stereo not given in full)
KM12 colon
  GI50: 0.0197 µg/mL and 0.0207 µg/mL
SF-295 CNS
  GI50: 0.0253 µg/mL
A549 NSCLC
  GI50: 0.027 µg/mL and 0.0212 µg/mL
SN12C renal
  GI50: 0.0272 µg/mL and 0.011 µg/mL
NCI-H522 lung
  GI50: 0.0143 µg/mL and 0.0124 µg/mL
SW-620 colon
  GI50: 0.0264 µg/mL and 0.0232 µg/mL
MALME-3M melanoma
  GI50: 0.0146 µg/mL and 0.0159 µg/mL
SK-MEL-28 melanoma
  GI50: 0.02 µg/mL and 0.0182 µg/mL
TK-10 renal
  GI50: 0.0792 µg/mL and 0.288 µg/mL

## Cc1cc(N(CCC#N)S(C)(=O)=O)ccc1C=Nc1ccc(C(=O)NN2C(=O)/C(=C/c3ccc(N(CCC#N)CCC#N)cc3C)N=C2c2cc([N+](=O)[O-])ccc2Cl)cc1
KM12 colon
  TGI: > 100 µM
A549 NSCLC
  TGI: > 100 µM
SN12C renal
  TGI: > 100 µM
NCI-H522 lung
  TGI: > 100 µM
SW-620 colon
  TGI: > 100 µM
MALME-3M melanoma
  TGI: > 100 µM
ACHN renal
  TGI: > 100 µM
SK-MEL-28 melanoma
  TGI: > 100 µM
TK-10 renal
  TGI: > 100 µM

## N#C/C(=C1\SC(N=Nc2ccccc2)C(=O)N1c1ccccc1)c1nc2ccccc2[nH]1 (stereo not given)
SF-295 CNS
  TGI: > 100 µM
A549 NSCLC
  TGI: > 100 µM
SN12C renal
  TGI: > 100 µM
NCI-H522 lung
  TGI: > 100 µM
SW-620 colon
  TGI: > 100 µM
MALME-3M melanoma
  TGI: > 100 µM
ACHN renal
  TGI: > 100 µM
SK-MEL-28 melanoma
  TGI: > 100 µM
TK-10 renal
  TGI: > 100 µM
